According to patent US20240343681A1, “MOLECULES HAVING PESTICIDAL UTILITY AND INTERMEDIATES AND PROCESSES RELATED THERETO” (priority 2021, published 2024):

Tests used:
[1] = test system: Yellow Fever Mosquito (Aedes aegypti, AEDSAE) larvae; assay: Bioassay on yellow fever mosquito (YFM), 96-well plate larval assay; assay type: in vivo; details: 4000 ppm (master plate solution), about 1 day-old larvae, 3 days
Procedure: Example B: Bioassays on Yellow Fever Mosquito (Aedes aegypti, AEDSAE) (“YFM”)
Master plates containing 400 μg of a molecule dissolved in 100 μL of dimethyl sulfoxide (DMSO) (equivalent to a 4000 ppm solution) are used. A master plate of assembled molecules contains 15 μL per well. To this plate, 135 μL of a 90:10 water/acetone mixture is added to each well. A robot (Biomek® NXP Laboratory Automation Workstation) is programmed to dispense 15 μL aspirations from the master plate into an empty 96-well shallow plate (“daughter” plate). There are 6 reps (“daughter” plates) created per master. The created “daughter” plates are then immediately infested with YFM larvae.
The day before plates are to be treated, mosquito eggs are placed in Millipore water containing liver powder to begin hatching (4 g into 400 mL). After the “daughter” plates are created using the robot, they are infested with 220 μL of the liver powder/larval mosquito mixture (about 1 day-old larvae). After plates are infested with mosquito larvae, a non-evaporative lid is used to cover the plate to reduce drying. Plates are held at room temperature for 3 days prior to grading. After 3 days, each well is observed and scored based on mortality.

[2] = test system: Beet Armyworm (Spodoptera exigua, LAPHEG) second instar larva; assay: Bioassay on beet armyworm (BAW), 128-well diet tray assay; assay type: in vivo; details: 50 μg/cm^2 on artificial diet, 25° C., five days
In short: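 Test molecule in 90:10 acetone–water applied at 50 μg/cm^2 onto 1 mL artificial diet and dried; one second-instar larva per well, eight wells. Held 5 days at 25 °C, 14:10 light–dark; percent mortality averaged over the eight wells.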

SMILES: O=C(CN1CCOCC1)Nc1cc(NC(=O)[C@H]2[C@H](c3cc(Cl)cc(Cl)c3)C2(Cl)Cl)ccc1Cl (racemic) [F50, trans-rac-2,2-Dichloro-N-(4-chloro-3-(2-morpholinoacetamido)phenyl)-3-(3,5-dichlorophenyl)cyclopropane-1-carboxamide]
- activity against YFM (scored based on mortality) [1]: exhibited activity
- activity against BAW (percent mortality, averaged over eight wells) [2]: exhibited activity

SMILES: O=C(Nc1ccc(Cl)c(NC(=O)C(F)(F)F)c1)[C@H]1[C@H](c2cc(Cl)cc(Cl)c2)C1(Cl)Cl (racemic) [F53, trans-rac-2,2-dichloro-N-(4-chloro-3-(2,2,2-trifluoroacetamido)phenyl)-3-(3,5-dichlorophenyl)cyclopropane-1-carboxamide]
- activity against YFM (scored based on mortality) [1]: exhibited activity
- activity against BAW (percent mortality, averaged over eight wells) [2]: exhibited activity

SMILES: O=C(Nc1ccc(Cl)c(NC(=O)C(F)(F)Cl)c1)[C@H]1[C@H](c2cc(Cl)cc(Cl)c2)C1(Cl)Cl (racemic) [F54, trans-rac-2,2-Dichloro-N-(4-chloro-3-(2-chloro-2,2-difluoroacetamido)phenyl)-3-(3,5-dichlorophenyl)cyclopropane-1-carboxamide]
- activity against YFM (scored based on mortality) [1]: exhibited activity
- activity against BAW (percent mortality, averaged over eight wells) [2]: exhibited activity

SMILES: O=C(Nc1ccc(Cl)c(NC(=O)C(F)(F)C(F)(F)C(F)(F)F)c1)[C@H]1[C@H](c2cc(Cl)cc(Cl)c2)C1(Cl)Cl (racemic) [F56, trans-rac-2,2-Dichloro-N-(4-chloro-3-(2,2,3,3,4,4,4-heptafluorobutanamido)phenyl)-3-(3,5-dichlorophenyl)cyclopropane-1-carboxamide]
- activity against YFM (scored based on mortality) [1]: exhibited activity
- activity against BAW (percent mortality, averaged over eight wells) [2]: exhibited activity

SMILES: CCC(F)(F)C(=O)Nc1cc(NC(=O)[C@H]2[C@H](c3cc(Cl)cc(Cl)c3)C2(Cl)Cl)ccc1Cl (racemic) [F58, trans-rac-2,2-Dichloro-N-(4-chloro-3-(2,2-difluorobutanamido)phenyl)-3-(3,5-dichlorophenyl)cyclopropane-1-carboxamide]
- activity against YFM (scored based on mortality) [1]: exhibited activity
- activity against BAW (percent mortality, averaged over eight wells) [2]: exhibited activity

SMILES: Cc1cc(C#N)ccc1C(=O)Nc1cc(NC(=O)[C@H]2[C@H](c3cc(Cl)cc(Cl)c3)C2(Cl)Cl)ccc1F (racemic) [F60, trans-rac-4-Cyano-N-(5-(2,2-dichloro-3-(3,5-dichlorophenyl)cyclopropane-1-carboxamido)-2-fluorophenyl)-2-methylbenzamide]
- activity against YFM (scored based on mortality) [1]: exhibited activity
- activity against BAW (percent mortality, averaged over eight wells) [2]: exhibited activity

SMILES: O=C(Nc1cc(NC(=O)[C@H]2[C@H](c3cc(Cl)cc(Cl)c3)C2(Cl)Cl)ccc1F)c1c(F)cccc1F (racemic) [F61, trans-rac-N-(5-(2,2-Dichloro-3-(3,5-dichlorophenyl)cyclopropane-1-carboxamido)-2-fluorophenyl)-2,6-difluorobenzamide]
- activity against YFM (scored based on mortality) [1]: exhibited activity
- activity against BAW (percent mortality, averaged over eight wells) [2]: exhibited activity

SMILES: O=C(Nc1cc(NC(=O)[C@H]2[C@H](c3cc(Cl)cc(Cl)c3)C2(Cl)Cl)ccc1F)c1cc(F)cc(F)c1 (racemic) [F62, trans-rac-N-(5-(2,2-Dichloro-3-(3,5-dichlorophenyl)cyclopropane-1-carboxamido)-2-fluorophenyl)-3,5-difluorobenzamide]
- activity against YFM (scored based on mortality) [1]: exhibited activity
- activity against BAW (percent mortality, averaged over eight wells) [2]: exhibited activity

SMILES: CC(CC(=O)Nc1cc(NC(=O)C2C(c3cc(Cl)cc(Cl)c3)C2(Cl)Cl)ccc1F)C(F)(F)F (racemic) [F64, trans-rac-2,2-Dichloro-3-(3,5-dichlorophenyl)-N-(4-fluoro-3-(4,4,4-trifluoro-3-methylbutanamido)phenyl)cyclopropane-1-carboxamide]
- activity against YFM (scored based on mortality) [1]: exhibited activity
- activity against BAW (percent mortality, averaged over eight wells) [2]: exhibited activity
